Data published in ChEMBL document CHEMBL1697781, “Assessment of the health effects of chemicals in humans: II. Construction of an adverse effects database for QSAR modeling” (Curr Drug Discov Technol, 2004).

What was measured:
Settings in all cases: human; call rule not given here
Hepatotoxicity [1] = assay: FDA HLAED, alkaline phosphatase increase
Hepatotoxicity [2] = assay: FDA HLAED, liver enzyme composite activity
Hepatotoxicity [3] = assay: FDA HLAED, lactate dehydrogenase (LDH) increase
Hepatotoxicity [4] = assay: FDA HLAED, serum glutamic pyruvic transaminase (SGPT) increase
Hepatotoxicity [5] = assay: FDA HLAED, serum glutamic oxaloacetic transaminase (SGOT) increase
Hepatotoxicity [6] = assay: FDA HLAED, gamma-glutamyl transferase (GGT) increase
For GGT Increase - Index Value in this document: reference of the scale not given here.
For LDH Increase - Index Value in this document: reference of the scale not given here.

CCN[C@@H]1C[C@H](N)[C@@H](O[C@H]2OC(CN)=CC[C@H]2N)[C@H](O)[C@H]1O[C@H]1OC[C@](C)(O)[C@H](NC)[C@H]1O [NETILMICIN]
Alkaline Phosphatase Increase - Activity Score (Hepatotoxicity [1]): Inactive | Alkaline Phosphatase Increase - Index Value (Hepatotoxicity [1]): 0 | Alkaline Phosphatase Increase - Number of Reports (Hepatotoxicity [1]): < 4 | Composite Activity - Active (Hepatotoxicity [2]): 0 | Composite Activity - Marginal (Hepatotoxicity [2]): 0 | Composite Activity - Score (Hepatotoxicity [2]): Inactive | LDH Increase - Activity Score (Hepatotoxicity [3]): Inactive | LDH Increase - Index Value (Hepatotoxicity [3]): 0 | LDH Increase - Number of Reports (Hepatotoxicity [3]): < 4 | SGPT Increase - Activity Score (Hepatotoxicity [4]): Inactive | SGPT Increase - Index Value (Hepatotoxicity [4]): 0 | SGPT Increase - Number of Reports (Hepatotoxicity [4]): < 4 | SGOT Increase - Activity Score (Hepatotoxicity [5]): Inactive | SGOT Increase - Index Value (Hepatotoxicity [5]): 0 | SGOT Increase - Number of Reports (Hepatotoxicity [5]): < 4 | GGT Increase - Activity Score (Hepatotoxicity [6]): Inactive | GGT Increase - Index Value (Hepatotoxicity [6]): 0 | GGT Increase - Number of Reports (Hepatotoxicity [6]): < 4

Cc1ccnc2c1NC(=O)c1cccnc1N2C1CC1 [NEVIRAPINE]
Alkaline Phosphatase Increase - Activity Score (Hepatotoxicity [1]): Active | Alkaline Phosphatase Increase - Index Value (Hepatotoxicity [1]): 27.5 | Alkaline Phosphatase Increase - Number of Reports (Hepatotoxicity [1]): >= 4 | Composite Activity - Active (Hepatotoxicity [2]): 5 | Composite Activity - Marginal (Hepatotoxicity [2]): 0 | Composite Activity - Score (Hepatotoxicity [2]): Active | LDH Increase - Activity Score (Hepatotoxicity [3]): Active | LDH Increase - Index Value (Hepatotoxicity [3]): 34.4 | LDH Increase - Number of Reports (Hepatotoxicity [3]): >= 4 | SGPT Increase - Activity Score (Hepatotoxicity [4]): Active | SGPT Increase - Index Value (Hepatotoxicity [4]): 55 | SGPT Increase - Number of Reports (Hepatotoxicity [4]): >= 4 | SGOT Increase - Activity Score (Hepatotoxicity [5]): Active | SGOT Increase - Index Value (Hepatotoxicity [5]): 68.7 | SGOT Increase - Number of Reports (Hepatotoxicity [5]): >= 4 | GGT Increase - Activity Score (Hepatotoxicity [6]): Active | GGT Increase - Index Value (Hepatotoxicity [6]): 41.2 | GGT Increase - Number of Reports (Hepatotoxicity [6]): >= 4

COC(=O)C1=C(C)NC(C)=C(C(=O)OCCN(C)Cc2ccccc2)C1c1cccc([N+](=O)[O-])c1 (stereo not drawn) [NICARDIPINE]
Alkaline Phosphatase Increase - Activity Score (Hepatotoxicity [1]): Inactive | Alkaline Phosphatase Increase - Index Value (Hepatotoxicity [1]): 2 | Alkaline Phosphatase Increase - Number of Reports (Hepatotoxicity [1]): >= 4 | Composite Activity - Active (Hepatotoxicity [2]): 0 | Composite Activity - Marginal (Hepatotoxicity [2]): 1 | Composite Activity - Score (Hepatotoxicity [2]): Inactive | LDH Increase - Activity Score (Hepatotoxicity [3]): Inactive | LDH Increase - Index Value (Hepatotoxicity [3]): 0.9 | LDH Increase - Number of Reports (Hepatotoxicity [3]): >= 4 | SGPT Increase - Activity Score (Hepatotoxicity [4]): Inactive | SGPT Increase - Index Value (Hepatotoxicity [4]): 2.5 | SGPT Increase - Number of Reports (Hepatotoxicity [4]): >= 4 | SGOT Increase - Activity Score (Hepatotoxicity [5]): Marginally Active | SGOT Increase - Index Value (Hepatotoxicity [5]): 3 | SGOT Increase - Number of Reports (Hepatotoxicity [5]): >= 4 | GGT Increase - Activity Score (Hepatotoxicity [6]): Inactive | GGT Increase - Index Value (Hepatotoxicity [6]): 0.4 | GGT Increase - Number of Reports (Hepatotoxicity [6]): < 4

CN1CCC[C@H]1c1cccnc1 [NICOTINE]
Alkaline Phosphatase Increase - Activity Score (Hepatotoxicity [1]): Inactive | Alkaline Phosphatase Increase - Index Value (Hepatotoxicity [1]): 0 | Alkaline Phosphatase Increase - Number of Reports (Hepatotoxicity [1]): < 4 | Composite Activity - Active (Hepatotoxicity [2]; Liver): 0 | Composite Activity - Marginal (Hepatotoxicity [2]; Liver): 0 | Composite Activity - Score (Hepatotoxicity [2]; Liver): Inactive | LDH Increase - Activity Score (Hepatotoxicity [3]): Inactive | LDH Increase - Index Value (Hepatotoxicity [3]): 0.9 | LDH Increase - Number of Reports (Hepatotoxicity [3]): < 4 | SGPT Increase - Activity Score (Hepatotoxicity [4]): Inactive | SGPT Increase - Index Value (Hepatotoxicity [4]): 0.6 | SGPT Increase - Number of Reports (Hepatotoxicity [4]): < 4 | SGOT Increase - Activity Score (Hepatotoxicity [5]): Inactive | SGOT Increase - Index Value (Hepatotoxicity [5]): 0.6 | SGOT Increase - Number of Reports (Hepatotoxicity [5]): < 4 | GGT Increase - Activity Score (Hepatotoxicity [6]): Inactive | GGT Increase - Index Value (Hepatotoxicity [6]): 0.3 | GGT Increase - Number of Reports (Hepatotoxicity [6]): < 4

COC(=O)C1=C(C)NC(C)=C(C(=O)OC)C1c1ccccc1[N+](=O)[O-] [NIFEDIPINE]
Alkaline Phosphatase Increase - Activity Score (Hepatotoxicity [1]): Inactive | Alkaline Phosphatase Increase - Index Value (Hepatotoxicity [1]): 0.3 | Alkaline Phosphatase Increase - Number of Reports (Hepatotoxicity [1]): < 4 | Composite Activity - Active (Hepatotoxicity [2]): 0 | Composite Activity - Marginal (Hepatotoxicity [2]): 0 | Composite Activity - Score (Hepatotoxicity [2]): Inactive | LDH Increase - Activity Score (Hepatotoxicity [3]): Inactive | LDH Increase - Index Value (Hepatotoxicity [3]): 0.1 | LDH Increase - Number of Reports (Hepatotoxicity [3]): < 4 | SGPT Increase - Activity Score (Hepatotoxicity [4]): Inactive | SGPT Increase - Index Value (Hepatotoxicity [4]): 0.4 | SGPT Increase - Number of Reports (Hepatotoxicity [4]): >= 4 | SGOT Increase - Activity Score (Hepatotoxicity [5]): Inactive | SGOT Increase - Index Value (Hepatotoxicity [5]): 0.6 | SGOT Increase - Number of Reports (Hepatotoxicity [5]): >= 4 | GGT Increase - Activity Score (Hepatotoxicity [6]): Inactive | GGT Increase - Index Value (Hepatotoxicity [6]): 0 | GGT Increase - Number of Reports (Hepatotoxicity [6]): < 4

CC1(C)NC(=O)N(c2ccc([N+](=O)[O-])c(C(F)(F)F)c2)C1=O [NILUTAMIDE]
Alkaline Phosphatase Increase - Activity Score (Hepatotoxicity [1]): Inactive | Alkaline Phosphatase Increase - Index Value (Hepatotoxicity [1]): 0 | Alkaline Phosphatase Increase - Number of Reports (Hepatotoxicity [1]): < 4 | Composite Activity - Active (Hepatotoxicity [2]; Liver): 0 | Composite Activity - Marginal (Hepatotoxicity [2]; Liver): 0 | Composite Activity - Score (Hepatotoxicity [2]; Liver): Inactive | LDH Increase - Activity Score (Hepatotoxicity [3]): Inactive | LDH Increase - Index Value (Hepatotoxicity [3]): 0 | LDH Increase - Number of Reports (Hepatotoxicity [3]): < 4 | SGPT Increase - Activity Score (Hepatotoxicity [4]): Inactive | SGPT Increase - Index Value (Hepatotoxicity [4]): 19.5 | SGPT Increase - Number of Reports (Hepatotoxicity [4]): < 4 | SGOT Increase - Activity Score (Hepatotoxicity [5]): Inactive | SGOT Increase - Index Value (Hepatotoxicity [5]): 19.5 | SGOT Increase - Number of Reports (Hepatotoxicity [5]): < 4 | GGT Increase - Activity Score (Hepatotoxicity [6]): Inactive | GGT Increase - Index Value (Hepatotoxicity [6]): 0 | GGT Increase - Number of Reports (Hepatotoxicity [6]): < 4
